Laboratory results taken from patent US11274091B2 (Dizal (Jiangsu) Pharmaceutical Co., Ltd., priority 2018, dated 2022).

Assays:
human TRPC3 ion channel = human TRPC3 ion channel (Homo sapiens (Human), UniProt Q13507); test: Inhibition of TRPC3 FLIPR Assay (membrane potential dye, OAG challenge); assay type: cell-based; conditions: TRPC3 transfected AD293 cells, OAG at EC80; most potent isolated isomer; mean of minimum 2 experiments
Excerpt: (§1) TRPC3 and TRPC6 channel opening causes an influx of predominantly calcium and sodium cations that result in a change in the electrical potential across the cell membrane. This change in membrane potential can be monitored using membrane potential dyes in the following FLIPR™ (Fluorescent Imaging Plate Reader) assays.
AD293 cells were transfected using the PLVX-puro lentivirus vector containing the coding sequence of the human TRPC3 ion channel. Puromycin-resistant cells were selected by treating with […] puromycin for two weeks. Monoclonal cells were obtained by limiting dilution and compared for their response to OAG in a membrane potential assay. The cells were grown in DMEM+10% fetal bovine serum (FBS)+1 μg/mL puromycin as culture medium.
TRPC3 cells were plated at 9K/well into 384-well polystyrene plates. Cells were grown for 24 h at 37° C. plus 5% CO2 after which media was aspirated using a Tecan plate washer and replaced with 40 μL of dye loading buffer (130 mM NaCl, 5 mM KCl, 0.15 mM CaCl2, 1 mM MgCl2, 20 mM HEPES ((4-(2-hydroxyethyl)-1-piperazineethanesulfonic acid)), 5 mM NaHCO3). For TRPC3 a final concentration of 0.5× membrane potential dye (Molecular Devices Membrane Blue, FLIPR Membrane Potential Assay Kit (bulk), Product #R8034(BLUE), Molecular Devices, Sunnyvale, Calif., 94089, USA) was used. Cells with membrane potential dye were then incubated for 30 mins at room temperature prior to beginning the experiments.
To test the effects of compounds on TRPC3 activity, compounds were first diluted in 100% DMSO to 3× the final concentration to be used in the experiments. Typical dose-response experiments ranged from 10 μM (top concentration) to 0.5 nM (lowest concentration). Ten microliters of 5× compound in 0.5% DMSO were added to 40 μL of cells incubated with membrane potential dye. Compound addition was performed on a FLIPRTetra or a FLIPR 384 (MDS Analytical Technologies). After a 400 second incubation with compound, 12.5 μL of OAG was added at 5× the EC80 (typical EC80 for TRPC3=2 μM final). The OAG challenge is designed to measure the inhibitory activity of compounds on receptor-operated TRPC3 activation.
(§2) All data was normalized to low controls (buffer alone) or high controls (OAG EC100). Data was analyzed using an XC50 curve fitting module and reported as pIC50 or IC50 values. The values are averaged to determine a mean value, for a minimum of 2 experiments.

human TRPC6 ion channel = human TRPC6 ion channel (Homo sapiens (Human), UniProt Q9Y210); test: Inhibition of TRPC6 FLIPR Assay (membrane potential dye, OAG challenge); assay type: cell-based; conditions: TRPC6-HEK293 cells, OAG at EC80; most potent isolated isomer; mean of minimum 2 experiments
Excerpt: as §1
TRPC6-HEK293 was purchased from PerkinElmer (PerkinElmer, Product No.: AX-012-C), HEK293 cells were transfected using the pcDNA3.1(+)expression vector containing the coding sequence of the human TRPC6 ion channel. The coding sequence used is identical to coding sequence of GenBank NM_004621 with the exception of 2 synonym variations (t1683c and c2529t). The cells were grown in DMEM+10% fetal bovine serum (FBS) 0.5 mg/ml. Geneticin (ion channel expression selection) as culture medium.
TRPC6 cells were plated at 10K cells/well into 384-well polystyrene plates and then grown for 24 hs at 37° C. plus 5% CO2. After this time the media was aspirated using a Tecan plate washer and then replaced with 40 μL of dye loading buffer (130 mM NaCl, 5 mM KCl, 0.15 mM CaCl2, 1 mM MgCl2, 20 mM HEPES ((4-(2-hydroxyethyl)-1-piperazineethanesulfonic acid)), 5 mM NaHCO3). For TRPC6, a final concentration of 0.5× is used. Cells with membrane potential dye were then incubated for 30 mins at room temperature prior to beginning the experiments.
To test the effects of compounds on TRPC6 activity, compounds were first diluted in 100% DMSO to 3× the final concentration to be used in the experiments. Typical dose-response experiments ranged from 10 μM (top concentration) to 0.5 nM (lowest concentration). Ten microliters of […] compound in 0.5% DMSO were added to 40 μL of cells incubated with membrane potential dye. Compound addition was performed on a FLIPRTetra or a FLIPR 384 (MDS Analytical Technologies, Molecular Devices, Sunnyvale, Calif., 94089, USA). After a 400 second incubation with compound, […] OAG (1-oleoyl-2-acetyl-sn-glycerol (OAG), Sigma, Gillingham, Dorset, SP8 4XT Cat #O6754-10 MG) was added at 5× the EC80 (typical EC80 for TRPC6=3 μM final). The OAG challenge is designed to measure the inhibitory activity of compounds on receptor-operated TRPC6 activation.
as §2

human TRPC6 ion channel, sequence (Q9Y210 whole entry): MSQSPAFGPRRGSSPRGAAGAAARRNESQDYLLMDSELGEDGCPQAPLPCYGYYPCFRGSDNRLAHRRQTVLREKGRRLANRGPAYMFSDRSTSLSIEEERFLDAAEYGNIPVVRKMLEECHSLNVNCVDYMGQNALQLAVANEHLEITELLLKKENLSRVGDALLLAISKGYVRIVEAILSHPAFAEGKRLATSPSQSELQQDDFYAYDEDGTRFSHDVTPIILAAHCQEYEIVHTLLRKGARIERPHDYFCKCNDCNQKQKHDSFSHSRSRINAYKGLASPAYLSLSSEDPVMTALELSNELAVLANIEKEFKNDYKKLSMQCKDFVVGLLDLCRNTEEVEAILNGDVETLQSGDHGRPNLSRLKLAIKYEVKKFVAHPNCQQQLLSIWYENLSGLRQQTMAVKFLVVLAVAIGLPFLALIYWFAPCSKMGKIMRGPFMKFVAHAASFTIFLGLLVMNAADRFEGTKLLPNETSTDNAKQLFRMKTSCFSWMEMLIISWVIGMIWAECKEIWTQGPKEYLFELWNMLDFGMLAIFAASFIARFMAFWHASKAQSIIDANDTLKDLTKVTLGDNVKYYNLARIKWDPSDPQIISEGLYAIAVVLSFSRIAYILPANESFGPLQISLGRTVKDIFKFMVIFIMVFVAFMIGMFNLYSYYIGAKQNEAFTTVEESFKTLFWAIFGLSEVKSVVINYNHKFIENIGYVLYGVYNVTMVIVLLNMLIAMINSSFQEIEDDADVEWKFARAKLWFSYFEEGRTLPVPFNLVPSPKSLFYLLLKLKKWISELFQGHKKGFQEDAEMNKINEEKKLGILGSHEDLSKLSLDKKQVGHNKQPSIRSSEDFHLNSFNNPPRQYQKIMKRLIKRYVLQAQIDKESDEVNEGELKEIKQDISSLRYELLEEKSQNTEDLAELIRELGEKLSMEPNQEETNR
human TRPC3 ion channel, sequence (Q13507 whole entry): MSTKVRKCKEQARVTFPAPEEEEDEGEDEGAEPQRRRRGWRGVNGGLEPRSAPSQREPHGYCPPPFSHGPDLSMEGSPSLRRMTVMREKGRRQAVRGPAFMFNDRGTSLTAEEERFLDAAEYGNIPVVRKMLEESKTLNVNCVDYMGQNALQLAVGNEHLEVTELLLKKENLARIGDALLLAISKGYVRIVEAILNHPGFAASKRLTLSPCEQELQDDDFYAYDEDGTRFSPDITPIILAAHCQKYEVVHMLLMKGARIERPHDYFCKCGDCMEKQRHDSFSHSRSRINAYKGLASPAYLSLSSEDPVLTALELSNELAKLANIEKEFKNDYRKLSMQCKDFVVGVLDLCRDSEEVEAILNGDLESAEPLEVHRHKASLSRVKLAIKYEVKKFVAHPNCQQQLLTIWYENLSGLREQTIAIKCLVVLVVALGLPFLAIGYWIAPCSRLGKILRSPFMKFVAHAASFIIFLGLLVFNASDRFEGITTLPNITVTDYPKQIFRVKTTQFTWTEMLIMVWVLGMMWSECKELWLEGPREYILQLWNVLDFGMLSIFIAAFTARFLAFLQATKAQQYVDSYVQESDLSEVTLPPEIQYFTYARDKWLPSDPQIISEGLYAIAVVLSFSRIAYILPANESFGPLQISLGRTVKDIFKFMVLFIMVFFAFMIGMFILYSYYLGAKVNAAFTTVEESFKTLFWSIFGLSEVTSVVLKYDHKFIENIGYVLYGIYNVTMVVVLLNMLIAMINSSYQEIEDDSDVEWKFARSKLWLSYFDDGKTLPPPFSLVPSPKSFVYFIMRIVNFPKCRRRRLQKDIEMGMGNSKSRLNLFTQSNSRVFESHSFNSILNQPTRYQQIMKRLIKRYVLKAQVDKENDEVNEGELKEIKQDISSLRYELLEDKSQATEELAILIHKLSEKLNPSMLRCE

Row | Structure (SMILES) | IC50 (human TRPC3 ion channel) | IC50 (human TRPC6 ion channel)
1 | N#Cc1ccc(OC2CC(c3ccc(F)cc3)CC2N2CCC[C@@H](N)C2)nc1 (single isomer, unassigned) [Example 26] | 0.0255 µM | 0.00951 µM
2 | N#Cc1ccn(C2CC(c3ccc(F)cc3)CC2N2CCCC(N)C2)c1 (stereo not drawn) [Example 4, 1-[2-(3-amino-1-piperidyl)-4-(4-fluorophenyl)cyclopentyl]pyrrole-3-carbonitrile] | 0.00539 µM | 0.00531 µM
3 | N#Cc1cn(C2CC(c3ccc(F)cc3)CC2N2CCCC(N)C2)nn1 (stereo not drawn) [Example 5, 1-[2-(3-amino-1-piperidyl)-4-(4-fluorophenyl)cyclopentyl]triazole-4-carbonitrile] | 0.00428 µM | 0.00378 µM
4 | N[C@@H]1C[C@@H](F)CN([C@@H]2C[C@H](c3ccc(F)cc3)C[C@H]2n2cncn2)C1 [Example 10, (3R,5R)-5-fluoro-1-[(1R,2R,4S)-4-(4-fluorophenyl)-2-(1,2,4-triazol-1-yl)cyclopentyl]piperidin-3-amine] | 0.016 µM | 0.0298 µM
5 | NC1CC(F)CN(C2CC(c3ccc(F)cc3)CC2n2ncnn2)C1 (stereo not drawn) [Example 11, 5-fluoro-1-[4-(4-fluorophenyl)-2-(tetrazol-2-yl)cyclopentyl]piperidin-3-amine] | 0.00403 µM | 0.0106 µM
6 | N#Cc1ccc(OC2CC(c3ccc(F)c(O)c3)CC2N2CCCC(N)C2)cc1 (stereo not drawn) [Example 14, 4-[2-(3-amino-1-piperidyl)-4-(4-fluoro-3-hydroxy-phenyl)cyclopentoxy]benzonitrile] | 0.0588 µM | 0.0174 µM
7 | COc1cc(C2CC(Oc3ccc(C#N)cc3)C(N3CCCC(N)C3)C2)ccc1F (stereo not drawn) [Example 15, 4-[2-(3-amino-1-piperidyl)-4-(4-fluoro-3-methoxy-phenyl)cyclopentoxy]benzonitrile] | 0.0225 µM | 0.00951 µM
8 | N#Cc1ccc(OC2CC(c3cccc(F)c3)CC2N2CCCC(N)C2)c(Cl)c1 (stereo not drawn) [Example 16, 4-[2-(3-amino-1-piperidyl)-4-(3-fluorophenyl)cyclopentoxy]-3-chloro-benzonitrile] | 0.0695 µM | 0.0193 µM
9 | N#Cc1ccc(OC2CC(c3ccc(F)cc3)CC2N2CCC(F)(F)C(N)C2)cc1 (stereo not drawn) [Example 17, 4-[2-(3-amino-4,4-difluoro-1-piperidyl)-4-(4-fluorophenyl)cyclopentoxy]benzonitrile] | 0.0461 µM | 0.0207 µM
10 | N#Cc1ccc(OC2CC(c3ccc(F)cc3)CC2N2CC(N)CC(F)(F)C2)cc1 (stereo not drawn) [Example 18, 4-[2-(5-amino-3,3-difluoro-1-piperidyl)-4-(4-fluorophenyl)cyclopentoxy]benzonitrile] | 0.0425 µM | 0.0311 µM
11 | N#Cc1ccc(OC2CC(c3ccc(F)cc3)CC2N2CCCC(N)C2)cc1F (stereo not drawn) [Example 19, 4-[2-(3-amino-1-piperidyl)-4-(4-fluorophenyl)cyclopentoxy]-2-fluoro-benzonitrile] | 0.0645 µM | 0.0251 µM
12 | N#Cc1ccccc1OC1CC(c2ccccc2)CC1N1CCCC(N)C1 (stereo not drawn) [Example 20, 2-[2-(3-amino-1-piperidyl)-4-phenyl-cyclopentoxy]benzonitrile] | 0.0388 µM | 0.0141 µM
13 | N#Cc1ccc(OC2CC(c3ccccc3)CC2N2CCCC(N)C2)c(Cl)c1 (stereo not drawn) [Example 21, 4-[2-(3-amino-1-piperidyl)-4-phenyl-cyclopentoxy]-3-chloro-benzonitrile] | 0.0723 µM | 0.0174 µM
14 | Cc1cc(C#N)nnc1OC1CC(c2ccc(F)cc2)CC1N1CC(N)CC(F)C1 (stereo not drawn) [Example 22, 6-[2-(3-amino-5-fluoro-1-piperidyl)-4-(4-fluorophenyl)cyclopentoxy]-5-methyl-pyridazine-3-carbonitrile] | 0.118 µM | 0.0288 µM
15 | N#Cc1ccc(OC2CC(c3ccc(F)cc3)CC2N2CC(N)CC(F)C2)nn1 (stereo not drawn) [Example 24, 6-[2-(3-amino-5-fluoro-1-piperidyl)-4-(4-fluorophenyl)cyclopentoxy]pyridazine-3-carbonitrile] | 0.0072 µM | > 0.0118 µM

Second part, the molecule after the results:

Row | IC50 (human TRPC3 ion channel) | IC50 (human TRPC6 ion channel) | Structure (SMILES)
16 | 0.0177 µM | 0.00337 µM | NC1CCCN(C2CC(c3ccc(F)cc3)CC2n2nccn2)C1 (stereo not drawn) [Example 1, 1-[4-(4-fluorophenyl)-2-(triazol-2-yl)cyclopentyl]piperidin-3-amine]
17 | 0.00831 µM | 0.00797 µM | N#Cc1cnn(C2CC(c3ccc(F)cc3)CC2N2CCCC(N)C2)c1 (stereo not drawn) [Example 2, 1-[2-(3-amino-1-piperidyl)-4-(4-fluorophenyl)cyclopentyl]pyrazole-4-carbonitrile]
18 | 0.0464 µM | < 0.0199 µM | N#Cc1ccn(C2CC(c3ccc(F)cc3)CC2N2CCCC(N)C2)n1 (stereo not drawn) [Example 3, 1-[2-(3-amino-1-piperidyl)-4-(4-fluorophenyl)cyclopentyl]pyrazole-3-carbonitrile]
19 | 0.00622 µM | 0.00406 µM | N#Cc1cnn(C2CC(c3ccc(F)cc3)CC2N2CC(N)CC(F)C2)c1 (stereo not drawn) [Example 6, 1-[2-(3-amino-5-fluoro-1-piperidyl)-4-(4-fluorophenyl)cyclopentyl]pyrazole-4-carbonitrile]
20 | 0.0175 µM | 0.0162 µM | N#Cc1cnn(C2CC(c3ccc(F)cc3)CC2N2CCC(F)(F)C(N)C2)c1 (stereo not drawn) [Example 7, 1-[2-(3-amino-4,4-difluoro-1-piperidyl)-4-(4-fluorophenyl)cyclopentyl]pyrazole-4-carbonitrile]
21 | 0.00797 µM | 0.0028 µM | NC1CCCN(C2CC(c3ccc(F)cc3)CC2n2cccn2)C1 (stereo not drawn) [Example 8, 1-[4-(4-fluorophenyl)-2-pyrazol-1-yl-cyclopentyl]piperidin-3-amine]
22 | 0.00664 µM | 0.0034 µM | NC1CC(F)CN(C2CC(c3ccc(F)cc3)CC2n2cccn2)C1 (stereo not drawn) [Example 9, 5-fluoro-1-[4-(4-fluorophenyl)-2-pyrazol-1-yl-cyclopentyl]piperidin-3-amine]
23 | 0.00755 µM | 0.0267 µM | NC1CCCN(C2CC(c3ccc(F)cc3)CC2n2ncnn2)C1 (stereo not drawn) [Example 12, 1-[4-(4-fluorophenyl)-2-(tetrazol-2-yl)cyclopentyl]piperidin-3-amine]
24 | 0.0143 µM | 0.0071 µM | N#Cc1ncn(C2CC(c3ccc(F)cc3)CC2N2CCCC(N)C2)n1 (stereo not drawn) [Example 13, 1-[2-(3-amino-1-piperidyl)-4-(4-fluorophenyl)cyclopentyl]-1,2,4-triazole-3-carbonitrile]
25 | 0.0113 µM | 0.00656 µM | NC1CCCN(C2CC(c3ccc(F)cc3)CC2Oc2nnccc2Cl)C1 (stereo not drawn) [Example 23, 1-[2-(4-chloropyridazin-3-yl)oxy-4-(4-fluorophenyl)cyclopentyl]piperidin-3-amine]
26 | 0.209 µM | 0.00993 µM | N[C@@H]1CCCN([C@H]2C[C@@H](c3ccc(F)cc3)C[C@@H]2Oc2cc(F)cnn2)C1 [Example 25, (R)-1-((1S,2S,4R)-4-(4-fluorophenyl)-2-(5-fluoropyridazin-3-yloxy)cyclopentyl)piperidin-3-amine]
27 | 0.0507 µM | 0.022 µM | N#Cc1ccc(OC2CC(c3ccc(F)cc3)CC2N2CCCC(N)C2)cn1 (stereo not drawn) [Example 27]
